Experimental data as given in patent US11059832B2, “HPK1 inhibitors and methods of using same” (University Health Network, priority 2015, dated 2021).

Legend:
human HPK1 (MAP4K1) = target: T1, human HPK1 (MAP4K1) (Homo sapiens, UniProt Q92918); assay: HPK1 inhibition assay (indirect ELISA); format: biochemical; settings: GST-HPK1 0.6 nM, 12 μM ATP; read-out: IC50 Range HPK1
T1 construct: human HPK1 (aa 1-346); purchased Invitrogen PV6355
T1 sequence (Q92918 1-346): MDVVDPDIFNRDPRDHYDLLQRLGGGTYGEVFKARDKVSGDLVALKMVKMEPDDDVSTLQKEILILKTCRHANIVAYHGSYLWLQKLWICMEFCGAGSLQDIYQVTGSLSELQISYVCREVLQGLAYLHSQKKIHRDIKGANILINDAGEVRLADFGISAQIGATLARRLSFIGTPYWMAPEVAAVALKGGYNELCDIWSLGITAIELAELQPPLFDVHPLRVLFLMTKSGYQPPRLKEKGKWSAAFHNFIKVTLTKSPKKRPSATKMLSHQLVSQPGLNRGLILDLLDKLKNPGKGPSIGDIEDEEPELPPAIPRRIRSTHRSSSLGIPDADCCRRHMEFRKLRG
Outline: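 GST-tagged human HPK1 (aa 1-346, 0.6 nM) phosphorylated MBP-coated wells with 12 μM ATP in MOPS pH 7.2/Mg2+ buffer for 30 min after 15-min compound preincubation; phospho-Thr detected by antibody ELISA with TMB, 450 nm. Tested at 10 μM or 10-point titration (typically 50-0.1 μM); IC50 by 4-parameter logistic fit.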

LCK = target: T2, LCK (Homo sapiens, UniProt P06239); assay: LCK inhibition, FRET based Z'-LYTE Kinase Assay; format: biochemical; settings: 25 nM LCK, 180 μM ATP; read-out: IC50 Range Lck
T2 construct: purchased Invitrogen P3043
Experimental: (§1) FLT3 and LCK compound inhibition were determined using FRET based Z′-LYTE Kinase Assay Kit with Tyrosine 2 peptide as the substrate (Invitrogen cat #PV3191). […] The % inhibition values were determined according to the manufacturer's directions and IC50 values were obtained using a non-linear 4 point logistic curve fit (XLfit4, IDBS).

FLT3 = target: T3, FLT3 (Homo sapiens, UniProt P36888); assay: FLT3 inhibition, FRET based Z'-LYTE Kinase Assay; format: biochemical; settings: 1 nM FLT3, 940 μM ATP; read-out: IC50 Range Flt3
T3 construct: purchased Invitrogen PV3182
T3 sequence (P36888 27-993): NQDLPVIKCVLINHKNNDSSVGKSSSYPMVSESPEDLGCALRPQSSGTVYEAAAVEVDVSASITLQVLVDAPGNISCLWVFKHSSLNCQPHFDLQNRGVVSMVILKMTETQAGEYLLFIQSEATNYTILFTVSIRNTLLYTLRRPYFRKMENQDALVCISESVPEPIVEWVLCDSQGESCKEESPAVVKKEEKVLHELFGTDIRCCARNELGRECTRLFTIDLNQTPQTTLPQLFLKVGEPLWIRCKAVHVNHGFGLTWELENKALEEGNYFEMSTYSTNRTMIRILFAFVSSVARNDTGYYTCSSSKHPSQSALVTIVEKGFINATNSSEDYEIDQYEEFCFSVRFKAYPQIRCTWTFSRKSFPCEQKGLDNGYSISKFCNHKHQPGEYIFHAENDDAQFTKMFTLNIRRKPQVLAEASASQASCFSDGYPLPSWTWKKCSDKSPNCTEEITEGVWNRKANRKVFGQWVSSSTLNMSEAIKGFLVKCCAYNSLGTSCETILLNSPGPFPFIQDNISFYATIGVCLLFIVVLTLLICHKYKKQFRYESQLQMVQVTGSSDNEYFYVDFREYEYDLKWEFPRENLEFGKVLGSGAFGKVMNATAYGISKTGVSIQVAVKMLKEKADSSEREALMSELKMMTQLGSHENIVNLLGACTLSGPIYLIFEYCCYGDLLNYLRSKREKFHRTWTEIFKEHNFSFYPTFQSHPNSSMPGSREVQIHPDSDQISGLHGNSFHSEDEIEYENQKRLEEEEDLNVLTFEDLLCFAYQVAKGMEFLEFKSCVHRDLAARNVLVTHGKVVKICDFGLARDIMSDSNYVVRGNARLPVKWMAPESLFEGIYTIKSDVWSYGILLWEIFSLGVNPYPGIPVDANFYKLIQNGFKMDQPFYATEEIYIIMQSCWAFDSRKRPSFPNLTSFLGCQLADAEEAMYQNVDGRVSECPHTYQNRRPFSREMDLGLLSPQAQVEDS
Experimental: as §1

[1] = test system: SLP-76 serine 376 phosphorylation in α-CD3 stimulated Jurkat E6.1 cells; assay: In vitro phosphorylation assay, SLP-76 Ser376 (immunoblot); format: cell-based; settings: Homo sapiens, 4 h pretreatment, substantive = >75% inhibition as estimated by immunoblot analysis, read-out: SLP76 S376 Phosphorylation Onset-Substantive* Inhibition
Experimental: (§2) Jurkat E6.1 cells were obtained from American Type Culture Collection (ATCC, Manassas, Va.), and maintained according to the supplier's instructions. Cells were washed three times and starved in RPMI 1640 medium supplemented with 0.5% fetal calf serum for 18 h at 37° C. Serum starved cells were pretreated with the indicated concentration of inhibitor for 4 hours before stimulation with 10 μg/ml α-CD3 antibody (BioLegend, Inc., San Diego, Calif.) for 10 min at 37° C. The cells were washed once in phosphate-buffered saline (pH 7.4) containing 10 mm sodium pyrophosphate, 10 mm sodium fluoride, 10 mm EDTA, and 1 mm sodium orthovanadate. Protein lysates were prepared using ice-cold radioimmunoprecipitation assay (RIPA) lysis buffer. A total of 100 μg of cell lysate was loaded onto Bis-Tris gels (Life Technologies, Carlsbad, Calif.) with full-range molecular weight marker as a size reference, and resolved by SDS-PAGE electrophoresis. Proteins were transferred to PVDF membrane (Millipore, Billerica, Mass.), blocked and probed with antibodies for phospho-SLP-76 (Ser376) (rabbit polyclonal #13177; Cell Signaling Technology Inc., Danvers, Mass.), SLP-76 (rabbit polyclonal #4958; Cell Signaling Technology Inc., Danvers, Mass.), phospho-ERK (mouse monoclonal sc-7383; Santa Cruz Biotechnology Inc., Santa Cruz, Calif.) and ERK1/2 (rabbit polyclonal 06-182; Millipore, Billerica, Mass.). Secondary antibodies were diluted 1 in 15,000 and incubated for 1 h at rt. Protein bands were visualized and quantified using Odyssey near infrared imager (LI-COR, Lincoln, Nebr.).
(§3) Table 2 below lists effects of representative compounds of the present invention against SLP-76 serine 376 phosphorylation and ERK1/2 T202/Y204 phosphorylation in α-CD3 stimulated Jurkat E6.1 cells.

[2] = test system: ERK1/2 T202/Y204 phosphorylation in α-CD3 stimulated Jurkat E6.1 cells; assay: In vitro phosphorylation assay, ERK1/2 T202/Y204 (immunoblot); format: cell-based; settings: Homo sapiens, 4 h pretreatment, read-out: ERK1/2 T202/Y204 Phosphorylation Onset Inhibition
Experimental: as §2, §3

T2 sequence (P06239 whole entry, species assumed): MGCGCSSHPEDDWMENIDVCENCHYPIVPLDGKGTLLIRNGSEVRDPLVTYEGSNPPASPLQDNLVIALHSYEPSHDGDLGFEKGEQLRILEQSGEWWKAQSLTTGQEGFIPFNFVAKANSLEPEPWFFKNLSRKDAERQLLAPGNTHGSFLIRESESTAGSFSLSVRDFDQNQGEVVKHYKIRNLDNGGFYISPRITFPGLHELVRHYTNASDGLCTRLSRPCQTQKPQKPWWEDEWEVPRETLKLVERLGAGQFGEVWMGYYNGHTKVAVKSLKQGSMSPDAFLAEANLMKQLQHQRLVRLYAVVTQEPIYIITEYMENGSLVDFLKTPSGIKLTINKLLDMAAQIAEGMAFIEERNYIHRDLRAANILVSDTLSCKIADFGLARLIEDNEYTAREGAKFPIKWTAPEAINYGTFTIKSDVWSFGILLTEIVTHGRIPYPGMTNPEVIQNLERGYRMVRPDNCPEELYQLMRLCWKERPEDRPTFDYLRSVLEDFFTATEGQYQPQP

- IC50 (human HPK1 (MAP4K1)): ≤ 50 nM
- IC50 (LCK): 50 to 500 nM
- IC50 (FLT3): ≤ 50 nM
Compound: CN1CCN(c2ccc3nc(-c4c(N[C@H]5CCC[C@H]5O)c5ccsc5[nH]c4=O)[nH]c3c2)CC1 [Example A58, 4-(((1S,2R)-2-hydroxy-cyclopentyl)amino)-5-(6-(4-methylpiperazin-1-yl)-1H-benzo[d]imidazol-2-yl)-thieno[2,3-b]pyridin-6(7H)-one]
- IC75 [1]: 100 to 300 nM
- minimal effective concentration [2]: > 3 µM
